In patent US6528535B2, “Bicyclic inhibitors of protein farnesyl transferase” (Warner-Lambert Company, priority 1997, dated 2003):
Counter-ions that a name gives are not always drawn.

Target: T1, SF9 affinity purified rat FPT (Rattus norvegicus, UniProt Q02293+Q04631)
T1 construct: made in house; host or cells: Sf9 insect cells
Experiment: PFT (farnesyl protein transferase) inhibitory activity, radiolabeled farnesyl pyrophosphate / biotinyl peptide bead assay
Format: biochemical
Conditions: Examples 56-74, parallel synthesis array: single test; values adjusted to account for the purity of the sample; read-out: FTase, IC50
Description: The protein:farnesyl transferase (PFT) or farnesyl protein transferase (FPT) inhibitory activity of compounds of the present invention were assayed in HEPES buffer (pH 7.4) containing 5 mM potassium phosphate and 20 μM ZnCl2. The solution also contained 5 mM DTT (dithiothreitol), 5 mM MgCl2, and 0.1% PEG 8000. Assays were performed in 96 well plates (Wallec) and employed solutions composed of varying concentrations of a compound of the present invention in 10% DMSO (dimethylsulfoxide). Upon addition of both substrates, radiolabeled farnesyl pyrophosphate ([1^3H], specific activity 15-30 Ci/mmol, final concentration 134 nM) and (biotinyl)-Ahe-Thr-Lys-Cys-Val-Ile-Met ([3aS[3a alpha, 4 beta, 6a alpha]-hexahydro-2-oxo-1H-thieno[3,4-d]imidazole-5-pentanoic acid]-[7-aminoheptanoic acid]-Thr-Lys-Cys-Val-Ile-Met) (Ahe is 7-aminoheptanoic acid, Thr is threonine, Lys is lysine, Cys is cysteine, Val is valine, Ile is isoleucine, and Met is methionine) (final concentration 0.2 μM), the enzyme reaction was started by addition of SF9 affinity purified rat FPT. After incubation at 30° C. for 30 minutes, the reaction was terminated by diluting the reaction 2.5-fold with a stop buffer containing 1.5 M magnesium acetate, 0.2 M H3PO4, 0.5% BSA (bovine serum albumin), and strepavidin beads (Amersham) at a concentration of 1.3 mg/mL. After allowing the plate to settle for 30 minutes at room temperature, radioactivity was quantitated on a microbeta counter (Model 1450, Wallec). The assay was also carried out without 5 mM potassium phosphate.

Q: `O=C1/C(=C/c2ccccc2Cl)CCc2cc(OCCn3ccnc3)ccc21` [Example 56, 2-[(E)-1-(2-Chlorophenyl)methylidene]-6-[2-(1H-1-imidazolyl)ethoxy]-1,2,3,4-tetrahydro-1-naphthalenone] was tested. Which IC50 did it give?
A: The IC50 was 360 nM.

Q: With `O=C1/C(=C/c2cccc(Cl)c2)CCc2cc(OCCn3ccnc3)ccc21` [Example 57, 2-[(E)-1-(3-Chlorophenyl)methylidene]-6-[2-(1H-1-imidazolyl)ethoxy]-1,2,3,4-tetrahydro-1-naphthalenone] as the compound, how does the IC50 read?
A: Its IC50 is 420 nM.

Q: With `O=C1/C(=C/c2ccc(Cl)cc2)CCc2cc(OCCn3ccnc3)ccc21` [Example 58, 2-[(E)-1-(4-Chlorophenyl)methylidene]-6-[2-(1H-1-imidazolyl)ethoxy]-1,2,3,4-tetrahydro-1-naphthalenone] as the compound, how does the IC50 read?
A: Its IC50 is 170 nM.

Q: `O=C1/C(=C/c2ccc3c(c2)OCO3)CCc2cc(OCCn3ccnc3)ccc21` [Example 59, 2-[(E)-1-(1,3-Benzodioxol-5-yl)methylidene]-6-[2-(1H-1-imidazolyl)ethoxy]-1,2,3,4-tetrahydro-1-naphthalenone] was tested. Which IC50 did it give?
A: The IC50 was 210 nM.

Q: `O=C1/C(=C/c2ccc(F)cc2)CCc2cc(OCCn3ccnc3)ccc21` [Example 60, 2-[(E)-1-(4-Fluorophenyl)methylidene]-6-[2-(1H-1-imidazolyl)ethoxy]-1,2,3,4-tetrahydro-1-naphthalenone] was tested. Which IC50 did it give?
A: Its IC50 is 180 nM.

Q: How did the IC50 turn out when `O=C1/C(=C/c2cccc(Cl)c2Cl)CCc2cc(OCCn3ccnc3)ccc21` [Example 61, 2-[(E)-1-(2,3-Dichlorophenyl)methylidene]-6-[2-(1H-1-imidazolyl)ethoxy]-1,2,3,4-tetrahydro-1-naphthalenone] was run?
A: The IC50 was 570 nM.

Q: With `O=C1/C(=C/c2c(Cl)cccc2Cl)CCc2cc(OCCn3ccnc3)ccc21` [Example 62, 2-[(E)-1-(2,6-Dichlorophenyl)methylidene]-6-[2-(1H-1-imidazolyl)ethoxy]-1,2,3,4-tetrahydro-1-naphthalenone] as the compound, how does the IC50 read?
A: Its IC50 is 540 nM.

Q: `O=C1/C(=C/c2ccc(Cl)c(Cl)c2)CCc2cc(OCCn3ccnc3)ccc21` [Example 63, 2-[(E)-1-(3,4-Dichlorophenyl)methylidene]-6-[2-(1H-1-imidazolyl)ethoxy]-1,2,3,4-tetrahydro-1-naphthalenone] was tested. Which IC50 did it give?
A: The IC50 was 890 nM.

Q: How did the IC50 turn out when `O=C1/C(=C/c2cc(Cl)cc(Cl)c2)CCc2cc(OCCn3ccnc3)ccc21` [Example 64, 2-[(E)-1-(3,5-Dichlorophenyl)methylidene]-6-[2-(1H-1-imidazolyl)ethoxy]-1,2,3,4tetrahydro-1-naphthalenone] was run?
A: The IC50 was 570 nM.

Q: How did the IC50 turn out when `COc1ccc(OC)c(/C=C2\CCc3cc(OCCn4ccnc4)ccc3C2=O)c1` [Example 65] was run?
A: Its IC50 is 630 nM.

Q: For `COc1cccc(/C=C2\CCc3cc(OCCn4ccnc4)ccc3C2=O)c1OC` [Example 66, 2-[(E)-1-(2,3-Dimethoxyphenyl)methylidene]-6-[2-(1H-1-imidazolyl)ethoxy]-1,2,3,4-tetrahydro-1-naphthalenone], which IC50 is on record?
A: The IC50 was 1840 nM.

Q: How did the IC50 turn out when `O=C1/C(=C/c2ccccc2C(F)(F)F)CCc2cc(OCCn3ccnc3)ccc21` [Example 67, 6-[2-(1H-1-Imidazolyl)ethoxy]-2-(E)-1-[2-(trifluoromethyl)phenyl]methylidene-1,2,3,4-tetrahydro-1-naphthalenone] was run?
A: The IC50 was 710 nM.

Q: How did the IC50 turn out when `COc1cc(OC)c(/C=C2\CCc3cc(OCCn4ccnc4)ccc3C2=O)c(OC)c1` [Example 68, 6-[2-(1H-1-Imidazolyl)ethoxy]-2-[(E)-1-(2,4,6-trimethoxyphenyl)methylidene]-1,2,3,4-tetrahydro-1-naphthalenone] was run?
A: Its IC50 is 590 nM.

Same assay, conditions: average of two tests unless n is given in parentheses; read-out: FTase, IC50

Q: For `O=C1CCCc2cc(OCCn3ccnc3)ccc21` [Example 1, 6-(2-Imidazole-1-yl-ethoxy)-3,4-dihydro-2H-naphthalen-1-one], which IC50 is on record?
A: The IC50 was 2000 nM.

Q: Which IC50 does the source give for `Cc1nccn1CCOc1ccc2c(c1)CCCC2=O` [Example 2, 6-[2-(2-Methyl-imidazole-1-yl)-ethoxy]-3,4-dihydro-2H-naphthalen-1-one] here?
A: Its IC50 is 8400 nM.

Q: `O=C1C(=Cc2ccccn2)CCc2cc(OCCn3ccnc3)ccc21` [Example 3, 6-(2-Imidazole-1-yl-ethoxy)-2-pyridin-2-ylmethylene-3,4-dihydro-2H-naphthalen-1-one] was tested. Which IC50 did it give?
A: Its IC50 is 2400 nM.

Q: For `CCN(CC)CCOc1ccc(C=C2CCc3cc(OCCn4ccnc4)ccc3C2=O)cc1` [Example 8, 2-[4-(2-Diethylamino-ethoxy)-benzylidene]-6-(2-imidazole-1-yl-ethoxy)-3,4-dihydro-2H-naphthalen-1-one], which IC50 is on record?
A: The IC50 was 11900 nM.

Q: `O=C1C(=Cc2ccccc2)CCc2cc(OCCn3ccnc3)ccc21` [Example 9, 2-Benzylidene-6-(2-imidazole-1-yl-ethoxy)-3,4-dihydro-2H-naphthalen-1-one] was tested. Which IC50 did it give?
A: Its IC50 is 240 nM.

Q: With `COc1ccccc1C=C1CCc2cc(OCCn3ccnc3)ccc2C1=O` [Example 25, 6-(2-Imidazol-1-yl-ethoxy)-2-(2-methoxy-benzylidene)-3,4-dihydro-2H-naphthalen-1-one] as the compound, how does the IC50 read?
A: The IC50 was 2500 nM.

Q: With `O=C1CCCc2cc(OCCc3c[nH]cn3)ccc21` [Example 27, 6-[2-(1H-Imidazole4-yl)-ethoxy]-3,4-dihydro-2H-naphthalen-1-one, monohydrochloride] as the compound, how does the IC50 read?
A: The IC50 was 1790 nM.

Q: With `NC(=O)c1ccc(C=C2CCc3cc(OCCc4c[nH]cn4)ccc3C2=O)cc1` [Example 33, 4-{6-[2-(1H-Imidazole-4-yl)-ethoxy]-1-oxo-3,4-dihydro-1H-naphthalen-2-ylidenemethyl}-benzamide, monohydrochloride] as the compound, how does the IC50 read?
A: The IC50 was 7300 nM.

Q: How did the IC50 turn out when `O=C(O)c1ccc(C=C2CCc3cc(OCCc4c[nH]cn4)ccc3C2=O)cc1` [Example 35, 4-{6-[2-(1H-Imidazole-4-yl)-ethoxy]-1-oxo-3,4-dihydro-1H-naphthalen-2-ylidenemethyl}-benzoic acid, ditrifluoroacetate] was run?
A: Its IC50 is 2000 nM.

Q: How did the IC50 turn out when `O=C1C(=Cc2ccc(Cl)s2)CCc2cc(OCCc3c[nH]cn3)ccc21` [Example 36, 2-(5-Chloro-thiophen-2-ylmethylene)-6-[2-(1H-imidazole-4-yl)-ethoxy]-3,4-dihydro-2H-naphthalen-1-one, hydrochloride] was run?
A: The IC50 was 3500 nM.

Q: `O=C(O)c1ccc(C=C2CCc3cc(OCCc4c[nH]cn4)ccc3C2=O)s1` [Example 38, 5-{6-[2-(1H-Imidazol-4-yl)-ethoxy]-1-oxo-3,4-dihydro-1H-naphthalen-2-ylidenemethyl}-thiophene-2-carboxylic acid] was tested. Which IC50 did it give?
A: Its IC50 is 4300 nM.

Q: `CC(=C1CCc2cc(OCCc3c[nH]cn3)ccc2C1=O)c1ccccc1` [Example 40, 6-[2-(1H-Imidazole-4-yl)-ethoxy]-2-(1-phenyl-ethylidene)-3,4-dihydro-2H-naphthalen-1-one] was tested. Which IC50 did it give?
A: The IC50 was 4700 nM.

Q: For `O=C1/C(=C/C2CCCCC2)CCc2cc(OCCn3ccnc3)ccc21` [Example 45, 2-[(E)-1-Cyclohexylmethylidene]-6-[2-(1H-1-imidazolyl)ethoxy]-1,2,3,4-tetrahydro-1-naphthalenone, hydrochloride], which IC50 is on record?
A: Its IC50 is 5800 nM.

Q: `O=C1/C(=C/c2cccs2)COc2cc(OCCn3ccnc3)ccc21` [Example 52, 7-[2-(1H-1-Imidazolyl)ethoxy]-3-[(E)-1-(2-thienyl)methylidene]4-chromanone] was tested. Which IC50 did it give?
A: Its IC50 is 220 nM.

Q: `CC(C)(CNC(=O)CON=C1CCCc2cc(OCCn3ccnc3)ccc21)c1ccccc1` [Example 55, 2-[6-(2-Imidazol-1-yl-ethoxy)-3,4-dihydro-2H-naphthalen-1-ylideneaminooxy]-N-(2-methyl-2-phenyl-propyl)-acetamide] was tested. Which IC50 did it give?
A: The IC50 was 600 nM.
